Assays:
colon cell lines = experiment: NCI Anticancer Screen growth inhibition; format: cell-based; conditions: 2 day exposure; mean±s.e.m., n = 7 colon cell lines
Excerpt: (n = 6, paired Student’s t test, p = 0.02, Table S1). […] Finally, in a representative SC-1 sensitive tumor line (HCT-116), there was no difference in the distribution of the SC-1 treated cell population across the cell cycle compared to control treated cells (Figure S4).

HCT-116 = experiment: FACS analysis of putative CSC surface markers; format: cell-based; design: key to Change in Surface Marker Expression: Y indicates increased putative surface marker expression using the panel of 6 antibodies described in the Material and Methods
Excerpt: (§1) A BD FACsAria (BD Biosciences, San Jose, CA) was utilized for FACS analysis according to standard procedures. The instrument was equipped with a 488 nm 100 mW blue laser, a 638 nm 30 mW red laser, and a 405 nm 50 mW violet laser. The software package Diva 5.0 (BD Biosciences) was used for collection and analysis of data. The alignment of the three lasers in the flow cell was verified prior to running tumor cell samples by running Rainbow Beads (Spherotech). The six colors being used in the analysis were then compensated to account for spectral overlap emitted by the fluorochromes within each laser as well as across the lasers using a semi-automated process. This was done using compensation beads (BD Biosciences) that were coated with anti-mouse antibodies. The beads were incubated with each individual antibody used in the six-color panel for 15 min at room temperature. An unstained tube was also prepared. The unstained beads along with beads stained for each fluorochrome were run individually, recording 5000 events. The data was then run through the Diva software compensation matrices and the amount of “spectral bleed” from other fluorochromes into the fluorochrome of interest’s channel was determined and automatically compensated.
(§2) Treated and untreated cells (1×10^6 cells/condition) were harvested with trypsin EDTA (Invitrogen), washed, and then labeled with a six antibody cocktail (antibodies against the following epitopes: CD44, CD24, CD133, CD326, CD166, and P-glycoprotein in PBS without calcium and magnesium supplemented with 2% FBS) or appropriate isotype control antibodies. An unstained control was also prepared. The specific amounts needed for each labeled antibody were determined through titration studies. All cells were incubated with antibody for 15 minutes on ice and in the dark. The cells were then washed, resuspended in buffer, and analyzed on the FACsAria. For each experimental condition, the isotype control tube was evaluated first and 10,000 events were collected. Forward vs. side scatter gates were then established to eliminate likely debris. Further gating was determined for each conjugated isotype control antibody such that 1% of the population was considered a positive staining event. Cells stained with specific labeled antibodies were then evaluated and 10,000 events collected.

HT29 = experiment: FACS analysis of putative CSC surface markers; format: cell-based; design: key to Change in Surface Marker Expression: Y indicates increased putative surface marker expression using the panel of 6 antibodies described in the Material and Methods
Excerpt: as §1, §2

SW-620 [1] = experiment: FACS analysis of putative CSC surface markers; format: cell-based; design: key to Change in Surface Marker Expression: Y indicates increased putative surface marker expression using the panel of 6 antibodies described in the Material and Methods
Excerpt: as §1, §2

OCT4 = experiment: Immunoblotting of OCT4 in remaining colon tumor lines; format: cell-based; conditions: 0.1 µM SC-1
Experimental: Standard protein electrophoretic techniques were followed using previously published protocols. For these studies, the colon lines were cultured for 5 days with and without treatments, harvested with trypsin (0.25% trypsin 0.5 mM EDTA, Invitrogen), counted and lysed with a whole cell lysis buffer (10 mM Tris, 1.0 mM EDTA, 50 mM NaCl, 0.5% deoxycholate, 0.5% NP-40, 0.5% SDS, 1.0 mM PMSF, and aprotonin and a cocktail of phosphatase and protease inhibitors). The whole cell lysate was heated to 100°C for 10 min and then fractionated (1000 g, 10 min, 4°C). Protein concentrations were measured with the Pierce BCA Protein Assay. Twenty to 40 µg of protein lysate per lane were loaded onto 10% SDS polyacrylamide gels (Ready-Gels, Biorad) with Laemmli buffer. For immunoblotting, the primary antibodies were diluted in Tween/Tris wash buffer (0.1 mM Tris-HCl pH 7.5, 2.5% Tween-20, 150 mM NaCl) and 5% BSA or nonfat dry milk and incubated overnight at 4°C. Visualization of specific bands was accomplished with an alkaline phosphatase-labeled secondary anti-immunoglobulin antibody and the ECF Chemifluorescent reagent (GE Amersham). Pixel intensity of the imaged bands was measured using STORM (GE Amersham) and Image Quant Software. Normalization for loading was accomplished by reprobing with an anti-actin antibody, quantification of pixel intensity and data normalization.

RSK2 = RSK2 (Homo sapiens, UniProt P51812); experiment: In vitro kinase inhibition assay (modified Nguyen et al.); format: biochemical; conditions: RSK2 N-terminal domain; mean±SD, n = 5; concentration inhibiting 50% of control activity
Experimental: The RSK2 in vitro kinase inhibition assay utilized was a modification of protocols established by Nguyen et al.. Additional protocols that confirmed the results depicted in Figure 4 and evaluated kinase inhibitory activity in a random selection of protein kinases (Table 3) were conducted at Reaction Biology Corporation (Malvern, PA). This was a miniaturized ^33P-based screening assay.

SW-620 [2] = experiment: Limiting dilution tumorigenicity, s.c. xenograft without protein support; format: in vivo, NOD.SCID mice; design: key to Tumorigenicity: Y indicates increased tumor formation or increased time to appearance or both.; Y ^%: Y indicates increased tumor formation when Matrigel was co-injected
Experimental: Five day exposures were conducted.
Six week old female NOD.SCID mice were randomly assigned to each of 20 treatment arms (n = 5/group). Treated and control colon tumor lines were enzymatically harvested and counted prior to dilution in RPMI 1640 (at 10, 100, 1,000, 10,000 cells/inoculum) for subcutaneous injection into the axillary region using a volume of […]. Positive control groups were established such that tumor formation occurred in all mice in approximately one week thus confirming that all tumor lines studied were tumorigenic. Cell inocula for the positive control groups ranged from 1×10^6 to 2.5×10^6. Cell viability of the cell stocks was assessed by trypan blue exclusion prior to dilution for injection and was routinely found to be >95%. Tumor formation was monitored weekly using caliper measurements and the tumor mass was calculated as weight in mg = 1/2×(tumor length)×(tumor width)^2. All experiments were terminated at 120 days or when tumor weight exceeded 2000 mg for any individual mouse. In selected studies, tumor cells were resuspended in Matrigel (50% concentration, BD Biosciences) prior to injection.

[3] = five days of SC-1 treatment, mean±s.e.m., n = 3

RSK2, sequence (P51812 whole entry, species assumed, the tested form may be a part): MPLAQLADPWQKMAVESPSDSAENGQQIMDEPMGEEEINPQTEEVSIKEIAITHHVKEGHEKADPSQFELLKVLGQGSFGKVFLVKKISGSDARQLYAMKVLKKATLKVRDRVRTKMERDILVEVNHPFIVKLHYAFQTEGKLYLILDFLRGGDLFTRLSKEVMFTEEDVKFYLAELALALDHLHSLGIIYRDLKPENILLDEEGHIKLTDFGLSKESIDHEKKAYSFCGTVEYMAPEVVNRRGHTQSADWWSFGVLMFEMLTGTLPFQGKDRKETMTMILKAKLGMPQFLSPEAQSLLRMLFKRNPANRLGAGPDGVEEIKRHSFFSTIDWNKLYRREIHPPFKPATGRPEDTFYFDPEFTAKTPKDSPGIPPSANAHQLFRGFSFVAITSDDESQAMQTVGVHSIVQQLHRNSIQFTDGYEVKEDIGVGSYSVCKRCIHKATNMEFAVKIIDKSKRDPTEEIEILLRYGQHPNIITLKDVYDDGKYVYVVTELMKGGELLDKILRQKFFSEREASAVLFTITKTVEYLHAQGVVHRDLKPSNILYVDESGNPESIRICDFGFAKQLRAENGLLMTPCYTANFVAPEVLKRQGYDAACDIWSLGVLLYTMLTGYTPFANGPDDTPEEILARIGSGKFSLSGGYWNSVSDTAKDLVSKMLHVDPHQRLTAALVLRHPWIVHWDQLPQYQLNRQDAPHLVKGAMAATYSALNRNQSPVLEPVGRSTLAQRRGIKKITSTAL

EC50 (RSK2): 2500 ± 1800 nM
Compound: Cc1cc(Nc2ncc3c(n2)N(C)C(=O)N(c2cc(NC(=O)c4cccc(C(F)(F)F)c4)ccc2C)C3)n(C)n1 [SC-1]
GI50 (colon cell lines): 91 ± 70 nM
CD44+ CD24- subpopulation (HCT-116; after SC-1 treatment): increased
Change in Surface Marker Expression (HCT-116; marker CD44+ CD24−, summary of SC-1 effects): Y (CD44+ CD24−)
Cells expressing the CD133 glycosylated epitope (HT29; [3]): 27.6±3.6 % positive
Change in Surface Marker Expression (HT29; marker CD133+, summary of SC-1 effects): Y (CD133+)
CD44 subpopulation (SW-620 [1]; [3]): 74.1±13.4 % positive
Change in Surface Marker Expression (SW-620 [1]; marker CD44+, summary of SC-1 effects): Y (CD44+)
OCT4 protein expression (OCT4): unchanged or decreased
Tumorigenicity (SW-620 [2]; SW-620, summary of SC-1 effects): Y
Tumor take rate (SW-620 [2]; SW-620 treated 5 days with 0.1 µM SC-1, 100 cells inoculated s.c.): 0/5
Tumor take rate (SW-620 [2]; SW-620 treated 5 days with 0.1 µM SC-1, 1000 cells inoculated s.c.): 0/5
Tumor take rate (SW-620 [2]; SW-620 treated 5 days with 0.1 µM SC-1, 10000 cells inoculated s.c.): 2/5
Calculated Time to 1000 mg Tumor Volume (SW-620 [2]; SW-620 treated 5 days with 0.1 µM SC-1, 10,000 cells/inoculum, extrapolated from fitted line): 98 days
